One assay has as its target T1, pY641-STAT6 in PBMC (Homo sapiens, UniProt P42226).
T1 construct: Cryopreserved Peripheral Blood Mononuclear Cells (PBMC) are from AllCells; host or cells: cryopreserved PBMC
T1 sequence (P42226 1-847): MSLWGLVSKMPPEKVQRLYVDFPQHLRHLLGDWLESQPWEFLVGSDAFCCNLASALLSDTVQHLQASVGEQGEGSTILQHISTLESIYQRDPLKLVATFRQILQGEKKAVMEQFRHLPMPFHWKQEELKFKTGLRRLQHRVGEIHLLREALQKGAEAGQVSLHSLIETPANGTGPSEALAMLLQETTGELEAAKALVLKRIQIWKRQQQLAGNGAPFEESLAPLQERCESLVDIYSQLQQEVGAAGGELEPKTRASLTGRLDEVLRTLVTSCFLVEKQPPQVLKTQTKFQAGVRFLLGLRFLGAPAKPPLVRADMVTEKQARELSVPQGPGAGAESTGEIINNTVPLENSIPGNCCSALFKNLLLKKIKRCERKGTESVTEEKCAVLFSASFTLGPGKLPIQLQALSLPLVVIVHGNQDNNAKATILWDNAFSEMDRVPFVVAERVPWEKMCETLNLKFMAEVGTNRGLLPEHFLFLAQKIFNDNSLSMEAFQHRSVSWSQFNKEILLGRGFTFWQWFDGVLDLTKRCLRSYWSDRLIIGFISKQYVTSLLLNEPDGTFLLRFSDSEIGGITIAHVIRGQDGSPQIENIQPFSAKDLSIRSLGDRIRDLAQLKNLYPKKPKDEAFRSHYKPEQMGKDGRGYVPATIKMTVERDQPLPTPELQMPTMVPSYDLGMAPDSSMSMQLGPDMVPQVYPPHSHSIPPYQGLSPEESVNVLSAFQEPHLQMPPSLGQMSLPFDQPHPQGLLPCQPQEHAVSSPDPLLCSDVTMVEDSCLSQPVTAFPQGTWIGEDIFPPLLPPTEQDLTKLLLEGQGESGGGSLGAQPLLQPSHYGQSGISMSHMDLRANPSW
Description: MSD-pSTAT-PBMC Assay (pSTAT6, IL-4 stimulated). It is filed as cell-based. Particulars: compound 3 hrs, then 1 ng/mL IL-4 for 10 min. Put shortly:
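PBMC (human, cryopreserved, overnight recovery) + cpd 3 hrs → IL-6 10 ng/mL (STAT3) or IL-4 1 ng/mL (STAT6) ×10 min → lysis with protease/phosphatase inhibitors → MSD capture/phospho detection. IC50, variable slope, DMSO-normalized.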

A further assay has as its target T2, pY705-STAT3 in PBMC (Homo sapiens, UniProt P40763).
T2 construct: Cryopreserved Peripheral Blood Mononuclear Cells (PBMC) are from AllCells; host or cells: cryopreserved PBMC
Description: MSD-pSTAT-PBMC Assay (pSTAT3, IL-6 stimulated). It is filed as cell-based. Conditions: PBMC, compound 3 hrs, then 10 ng/mL IL-6 for 10 min. In short, it runs like this: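 pY705-STAT3 was detected electrochemiluminescently on total-STAT3 capture plates, using lysates of human PBMCs given compound for 3 h and then IL-6 (10 ng/mL, 10 min). Values were background-subtracted against unstimulated wells and set relative to DMSO. IC50 was fitted with variable slope.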

[1] abbreviates: PBMC, Table 115, read-out: STAT6.
Where [2] appears, read: PBMC, Table 1114, read-out: pSTAT6.

The values that follow come from US20250215029A1 (Recludix Pharma, Inc., priority 2022, published 2025).

Read-outs that look alike come from different tables or passages of the source.

T2 sequence (P40763 whole entry): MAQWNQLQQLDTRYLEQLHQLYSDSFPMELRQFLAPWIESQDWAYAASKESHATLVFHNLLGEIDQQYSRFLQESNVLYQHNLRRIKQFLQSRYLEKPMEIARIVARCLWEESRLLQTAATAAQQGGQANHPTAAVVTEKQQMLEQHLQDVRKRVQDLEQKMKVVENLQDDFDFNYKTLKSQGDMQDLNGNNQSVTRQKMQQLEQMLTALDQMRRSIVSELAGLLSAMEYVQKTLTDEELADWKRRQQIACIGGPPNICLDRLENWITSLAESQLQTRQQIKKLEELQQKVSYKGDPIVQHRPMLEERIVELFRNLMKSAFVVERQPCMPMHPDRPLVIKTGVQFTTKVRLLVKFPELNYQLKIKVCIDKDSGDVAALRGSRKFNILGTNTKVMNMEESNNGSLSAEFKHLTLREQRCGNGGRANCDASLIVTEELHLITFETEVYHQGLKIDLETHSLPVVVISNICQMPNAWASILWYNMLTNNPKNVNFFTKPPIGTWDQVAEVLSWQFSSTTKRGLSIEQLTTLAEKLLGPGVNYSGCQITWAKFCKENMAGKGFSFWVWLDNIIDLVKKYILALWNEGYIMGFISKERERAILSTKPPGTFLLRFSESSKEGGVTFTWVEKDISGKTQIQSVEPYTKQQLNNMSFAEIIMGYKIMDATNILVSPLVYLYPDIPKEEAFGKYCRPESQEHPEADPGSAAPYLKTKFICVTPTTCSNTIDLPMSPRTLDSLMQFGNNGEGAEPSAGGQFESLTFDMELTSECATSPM

In the case of `CC(C)(C)C(=O)SCCOP(=O)(OCCSC(=O)C(C)(C)C)C(F)(F)c1ccc2sc(C(=O)N[C@H]3CCC[C@H]4CC[C@@H](C(=O)N5CC(CS(C)(=O)=O)C5)N4C3=O)cc2c1` [Compound 1014, S,S′-((((difluoro(2-(((3S,6S,9aS)-3-(3-((methylsulfonyl)methyl)azetidine-1-carbonyl)-5-oxooctahydro-1H-pyrrolo[1,2-a]azepin-6-yl)carbamoyl)benzo [b]thiophen-5-yl)methyl)phosphoryl)bis(oxy))bis(ethane-2,1-diyl)) bis(2,2-dimethyl-propanethioate)], the IC50 on pY641-STAT6 in PBMC (setting [1]) was 0.1 to 1 µM; at pY705-STAT3 in PBMC (Table 115, read-out: STAT3), less than 0.1 µM.
With `CC(C)(C)C(=O)OCOP(=O)(Cc1ccc2sc(C(=O)N[C@H]3CCCC[C@H]4CC[C@@H](C(=O)N5C[C@@H](C#N)[C@H](c6ccccc6)C5)N4C3=O)cc2c1)OCOC(=O)C(C)(C)C` (single isomer, unassigned) [Compound 144, ((((2-(((3S,6S,10aS)-3-((3S,4R or 3R,4S)-3-cyano-4-phenylpyrrolidine-1-carbonyl)-5-oxodecahydro-pyrrolo[1,2-a]azocin-6-yl)carbamoyl)benzo[b]thiophen-5-yl)methyl)phosphoryl)bis (oxy))bis (methylene) bis(2,2-dimethylpropanaote)], the IC50 on pY641-STAT6 in PBMC (setting [2]) was in the range of 0.1 to 1 µM; on pY705-STAT3 in PBMC (Table 1114, read-out: pSTAT3), 1 to 3 µM.
`CC(C)OC(=O)[C@H](C)NP(=O)(Cc1ccc2sc(C(=O)N[C@H]3CCCC[C@H]4CC[C@@H](C(=O)N5C[C@H](c6cc[nH]c(=O)c6)[C@@H](C#N)C5)N4C3=O)cc2c1)Oc1ccccc1` (single isomer, unassigned) [Compound 197, isopropyl (((2-(((3S,6S,10aS)-3-((3R,4S or 3S,4R)-3-cyano-4-(2-oxo-1,2-dihydro-pyridin-4-yl)pyrrolidine-1-carbonyl)-5-oxodecahydro-pyrrolo[1,2-a]azocin-6-yl)carbamoyl)benzo[b]thiophen-5-yl)methyl) (phenoxy)phosphoryl)-L-alaninate]: the IC50 against pY641-STAT6 in PBMC (pSTAT6, PBMC, Table 1114) is greater than 3 µM; on pY705-STAT3 in PBMC (Table 1114, read-out: pSTAT3) it was greater than 3 µM.
Consider `CC(C)CC(=O)SCCOP(=O)(OCCSC(=O)CC(C)C)C(F)(F)c1ccc2sc(C(=O)N[C@H]3CCCC(C)[C@H]4CC[C@@H](C(=O)N5CC(c6cccnc6)C5)N4C3=O)cc2c1` (stereo partly drawn) [Compound 161, S,S′-((((difluoro(2-(((3S,6S,10aR)-10-methyl-5-oxo-3-(3-(pyridin-3-yl)azetidine-1-carbonyl)decahydropyrrolo [1,2-a]azocin-6-yl)carbamoyl)benzo[b]thiophen-5-yl)methyl)phosphoryl)bis(oxy))bis(ethane-2,1-diyl)) bis(3-methylbutane thioate)], for which the IC50 is greater than 3 µM on pY641-STAT6 in PBMC (setting [2]) and less than 0.1 µM at pY705-STAT3 in PBMC (Table 1114, read-out: pSTAT3).
Take `CC(C)OC(=O)OCOP(=O)(OCOC(=O)OC(C)C)C(F)(F)c1ccc2ccc(C(=O)N[C@H]3CCCC[C@H]4CC[C@@H](C(=O)N5C[C@H](c6cc[nH]c(=O)c6)[C@@H](C#N)C5)N4C3=O)cc2c1` (single isomer, unassigned) [Compound 1087]: the IC50 on pY641-STAT6 in PBMC (setting [1]) was less than 0.1 µM; at pY705-STAT3 in PBMC (Table 115, read-out: STAT3) it was 0.1 to 1 µM.
In the case of `N#C[C@H]1CN(C(=O)[C@@H]2CC[C@@H]3CCCC[C@H](NC(=O)c4ccc5ccc(C(F)(F)P(=O)(OCCSC(=O)CC6COC6)OCCSC(=O)CC6COC6)cc5c4)C(=O)N32)C[C@@H]1c1cc[nH]c(=O)c1` (single isomer, unassigned) [Compound 408], the IC50 at pY641-STAT6 in PBMC (setting [1]) is 0.1 to 1 µM; on pY705-STAT3 in PBMC (Table 115, read-out: STAT3), greater than 3 µM.
`CC(C)CC(=O)SCCCCOP(=O)(OCCCCSC(=O)CC(C)C)C(F)(F)c1ccc2sc(C(=O)N[C@H]3CCCC[C@H]4CC[C@@H](C(=O)N5CC(C#N)C(c6ccccc6)C5)N4C3=O)cc2c1` (single isomer, unassigned) [Compound 153, S,S′-(((((2-(((3S,6S,10aS)-3-((3S,4R or 3R,4S)-3-cyano-4-phenylpyrrolidine-1-carbonyl)-5-oxodecahydro-pyrrolo[1,2-a]azocin-6-yl)carbamoyl)benzo[b]thiophen-5-yl)difluoromethyl)phosphoryl)bis (oxy))bis(butane-4,1-diyl)) bis(3-methylbutane thioate)]: the IC50 at pY641-STAT6 in PBMC (setting [2]) was greater than 3 µM; on pY705-STAT3 in PBMC (Table 1114, read-out: pSTAT3), greater than 3 µM.
Turning to `CC(C)(C)C(=O)SCCOP(=O)(Oc1ccccc1)C(F)(F)c1ccc2sc(C(=O)N[C@H]3CCCC[C@H]4CC[C@@H](C(=O)N5C[C@H](c6ccccc6)[C@@H](C#N)C5)N4C3=O)cc2c1` (single isomer, unassigned) [Compound 133, S-(2-((((2-(((3S,6S,10aS)-3-((3S,4R or 3R,4S)-3-cyano-4-phenylpyrrolidine-1-carbonyl)-5-oxodecahydro-pyrrolo[1,2-a]azocin-6-yl)carbamoyl)benzo[b]thiophen-5-yl)difluoromethyl) (phenoxy)phosphoryl)oxy)ethyl)-2,2-dimethylpropane-thioate], the IC50 at pY641-STAT6 in PBMC (pSTAT6, PBMC, Table 1114) was 0.1 to 1 µM; on pY705-STAT3 in PBMC (Table 1114, read-out: pSTAT3) it was greater than 3 µM.
In the case of `COCC(=O)SCCOP(=O)(OCCSC(=O)COC)C(F)(F)c1ccc2sc(C(=O)N[C@H]3CCC[C@H]4CC[C@@H](C(=O)N5CC(c6cccnc6)C5)N4C3=O)cc2c1` [Compound 1011, S,S′-((((difluoro(2-(((3S,6S,9aS)-5-oxo-3-(3-(pyridin-3-yl)azetidine-1-carbonyl)octahydro-1H-pyrrolo[1,2-a]azepin-6-yl)carbamoyl)benzo [b]thiophen-5-yl)methyl)phosphoryl)bis(oxy))bis(ethane-2,1-diyl)) bis(2-methoxyethanethioate)], the IC50 was 0.1 to 1 µM on pY641-STAT6 in PBMC (setting [1]) and less than 0.1 µM on pY705-STAT3 in PBMC (Table 115, read-out: STAT3).
Regarding `CCCOC(=O)[C@H](C)NP(=O)(Oc1ccccc1)C(F)c1ccc2sc(C(=O)N[C@H]3C[C@@H](C)C[C@H]4CC[C@@H](C(=O)N5CC(c6cnccc6F)C5)N4C3=O)cc2c1` (stereo partly drawn) [Compound 292, propyl ((fluoro(2-(((3S,6S,8R,9aR)-3-(3-(4-fluoropyridin-3-yl)azetidine-1-carbonyl)-8-methyl-5-oxooctahydro-1H-pyrrolo[1,2-a]azepin-6-yl)carbamoyl)benzo [b]thiophen-5-yl)methyl)(phenoxy)phosphoryl)-L-alaninate], the IC50 at pY641-STAT6 in PBMC (STAT6, PBMC, Table 115) is greater than 3 µM; at pY705-STAT3 in PBMC (Table 115, read-out: STAT3), less than 0.1 µM.
For the compound `CC(C)OC(=O)OCOP(=O)(OCOC(=O)OC(C)C)C(F)(F)c1ccc2sc(C(=O)N[C@H]3CCC[C@H]4CC[C@@H](C(=O)N5CC(c6cccnc6)C5)N4C3=O)cc2c1` [Compound 180, (((difluoro(2-(((3S,6S,9aS)-5-oxo-3-(3-(pyridin-3-yl)azetidine-1-carbonyl)octahydro-1H-pyrrolo[1,2-a]azepin-6-yl)carbamoyl)benzo[b]thiophen-5-yl)methyl)phosphoryl)bis(oxy)) bis(methylene) diisopropyl bis(carbonate)], the IC50 at pY641-STAT6 in PBMC (setting [2]) is greater than 3 µM; on pY705-STAT3 in PBMC (Table 1114, read-out: pSTAT3) it was less than 0.1 µM.
Take `CC(C)(C)C(=O)SCCOP(=O)(Oc1cccc(C#N)c1)C(F)(F)c1ccc2sc(C(=O)N[C@H]3CCCC[C@H]4CC[C@@H](C(=O)N5C[C@@H](C#N)[C@H](c6ccccc6)C5)N4C3=O)cc2c1` (single isomer, unassigned) [Compound 137, S-(2-((((2-(((3S,6S,10aS)-3-((3S,4R or 3R,4S)-3-cyano-4-phenylpyrrolidine-1-carbonyl)-5-oxodecahydro-pyrrolo[1,2-a]azocin-6-yl)carbamoyl)benzo[b]thiophen-5-yl)difluoromethyl)(3-cyanophenoxy)phosphoryl)oxy)ethyl)-2,2-dimethylpropane-thioate]: the IC50 was 0.1 to 1 µM against pY641-STAT6 in PBMC (pSTAT6, PBMC, Table 1114) and greater than 3 µM at pY705-STAT3 in PBMC (Table 1114, read-out: pSTAT3).
